Results reported in paper PMC12090182, “Repurposing of the RIPK1-Selective Benzo[1,4]oxazepin-4-one Scaffold for the Development of a Type III LIMK1/2 Inhibitor” (ACS Chemical Biology, 2025).
Read-outs that look alike come from different tables or passages of the source.

Test system: U2OS cells
Format: cell-based
Conditions: U2OS
Procedure, shortened: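 HEK293T and U2OS cells (DMEM) and MRC-9 fibroblasts (EMEM) exposed to compounds at 1 and 10 μM. Live-cell confocal imaging of cell shape and fluorescence before and at 12, 24 and 48 h. Normalized to 0.1% DMSO; biological duplicates with SEM.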

[1] = 1 µM, 0 h, biological replicate 1
[2] = 1 µM, 0 h, biological replicate 2
[3] = 1 µM, 12 h, biological replicate 1
[4] = 1 µM, 12 h, biological replicate 2
[5] = 1 µM, 24 h, biological replicate 1
[6] = 1 µM, 24 h, biological replicate 2
[7] = 1 µM, 48 h, biological replicate 1
[8] = 1 µM, 48 h, biological replicate 2
[9] = 10 µM, 0 h, biological replicate 1
[10] = 10 µM, 0 h, biological replicate 2
[11] = 10 µM, 12 h, biological replicate 1
[12] = 10 µM, 12 h, biological replicate 2
[13] = 10 µM, 24 h, biological replicate 1
[14] = 10 µM, 24 h, biological replicate 2
[15] = 10 µM, 48 h, biological replicate 1
[16] = 10 µM, 48 h, biological replicate 2

## CC(C)C(=O)Nc1ncc(-c2cc(C(F)F)nn2-c2c(Cl)cccc2Cl)s1 [LIMKi3]
[1]
  Cell count normalized to cells treated with DMSO control: 1.067
  Cell count per well: 222
  Population Fragmented Nuclei (%): 50.47%
  Population Healthy Nuclei (%): 44.34%
  Population Pyknosed Nuclei (%): 5.19%
  Population apoptotic cell (%): 81.82%
  Population cell that influence microtubule strucutre (%): 3.19%
  Population with increased mitochondrial mass (%): 4.26%
  Population with membrane disruption (%): 8.51%
[2]
  Cell count normalized to cells treated with DMSO control: 1.097
  Cell count per well: 94
  Population Fragmented Nuclei (%): 27.47%
  Population Healthy Nuclei (%): 63.74%
  Population Pyknosed Nuclei (%): 8.79%
  Population apoptotic cell (%): 100.00%
  Population cell that influence microtubule strucutre (%): 5.17%
  Population with increased mitochondrial mass (%): 1.72%
  Population with membrane disruption (%): 5.17%
[3]
  Cell count normalized to cells treated with DMSO control: 0.9868
  Cell count per well: 261
  Population Fragmented Nuclei (%): 35.71%
  Population Healthy Nuclei (%): 57.94%
  Population Pyknosed Nuclei (%): 6.35%
  Population apoptotic cell (%): 81.25%
  Population cell that influence microtubule strucutre (%): 3.42%
  Population with increased mitochondrial mass (%): 2.05%
  Population with membrane disruption (%): 6.85%
[4]
  Cell count normalized to cells treated with DMSO control: 1.091
  Cell count per well: 129
  Population Fragmented Nuclei (%): 18.25%
  Population Healthy Nuclei (%): 76.98%
  Population Pyknosed Nuclei (%): 4.76%
  Population apoptotic cell (%): 100.00%
  Population cell that influence microtubule strucutre (%): 4.12%
  Population with increased mitochondrial mass (%): 4.12%
  Population with membrane disruption (%): 5.15%
[5]
  Cell count normalized to cells treated with DMSO control: 0.9303
  Cell count per well: 290
  Population Fragmented Nuclei (%): 30.77%
  Population Healthy Nuclei (%): 62.24%
  Population Pyknosed Nuclei (%): 6.99%
  Population apoptotic cell (%): 80.00%
  Population cell that influence microtubule strucutre (%): 2.25%
  Population with increased mitochondrial mass (%): 3.37%
  Population with membrane disruption (%): 5.06%
[6]
  Cell count normalized to cells treated with DMSO control: 1.125
  Cell count per well: 160
  Population Fragmented Nuclei (%): 21.52%
  Population Healthy Nuclei (%): 67.72%
  Population Pyknosed Nuclei (%): 10.76%
  Population apoptotic cell (%): 70.59%
  Population cell that influence microtubule strucutre (%): 1.87%
  Population with increased mitochondrial mass (%): 2.80%
  Population with membrane disruption (%): 4.67%
[7]
  Cell count normalized to cells treated with DMSO control: 0.8403
  Cell count per well: 374
  Population Fragmented Nuclei (%): 26.78%
  Population Healthy Nuclei (%): 61.48%
  Population Pyknosed Nuclei (%): 11.75%
  Population apoptotic cell (%): 86.05%
  Population cell that influence microtubule strucutre (%): 4.44%
  Population with increased mitochondrial mass (%): 2.67%
  Population with membrane disruption (%): 6.22%
[8]
  Cell count normalized to cells treated with DMSO control: 0.9779
  Cell count per well: 202
  Population Fragmented Nuclei (%): 17.50%
  Population Healthy Nuclei (%): 70.50%
  Population Pyknosed Nuclei (%): 12.00%
  Population apoptotic cell (%): 87.50%
  Population cell that influence microtubule strucutre (%): 4.26%
  Population with increased mitochondrial mass (%): 2.13%
  Population with membrane disruption (%): 6.38%
[9]
  Cell count normalized to cells treated with DMSO control: 1.081
  Cell count per well: 225
  Population Fragmented Nuclei (%): 43.12%
  Population Healthy Nuclei (%): 50.46%
  Population Pyknosed Nuclei (%): 6.42%
  Population apoptotic cell (%): 78.57%
  Population cell that influence microtubule strucutre (%): 4.55%
  Population with increased mitochondrial mass (%): 3.64%
  Population with membrane disruption (%): 7.27%
[10]
  Cell count normalized to cells treated with DMSO control: 1.132
  Cell count per well: 97
  Population Fragmented Nuclei (%): 17.53%
  Population Healthy Nuclei (%): 71.13%
  Population Pyknosed Nuclei (%): 11.34%
  Population apoptotic cell (%): 90.91%
  Population cell that influence microtubule strucutre (%): 5.80%
  Population with increased mitochondrial mass (%): 10.14%
  Population with membrane disruption (%): 5.80%
[11]
  Cell count normalized to cells treated with DMSO control: 0.8507
  Cell count per well: 225
  Population Fragmented Nuclei (%): 35.24%
  Population Healthy Nuclei (%): 45.24%
  Population Pyknosed Nuclei (%): 19.52%
  Population apoptotic cell (%): 63.41%
  Population cell that influence microtubule strucutre (%): 84.21%
  Population with increased mitochondrial mass (%): 51.58%
  Population with membrane disruption (%): 77.89%
[12]
  Cell count normalized to cells treated with DMSO control: 0.9469
  Cell count per well: 112
  Population Fragmented Nuclei (%): 12.15%
  Population Healthy Nuclei (%): 68.22%
  Population Pyknosed Nuclei (%): 19.63%
  Population apoptotic cell (%): 57.14%
  Population cell that influence microtubule strucutre (%): 86.30%
  Population with increased mitochondrial mass (%): 68.49%
  Population with membrane disruption (%): 67.12%
[13]
  Cell count normalized to cells treated with DMSO control: 0.7058
  Cell count per well: 220
  Population Fragmented Nuclei (%): 35.92%
  Population Healthy Nuclei (%): 37.86%
  Population Pyknosed Nuclei (%): 26.21%
  Population apoptotic cell (%): 55.56%
  Population cell that influence microtubule strucutre (%): 78.21%
  Population with increased mitochondrial mass (%): 65.38%
  Population with membrane disruption (%): 65.38%
[14]
  Cell count normalized to cells treated with DMSO control: 0.7383
  Cell count per well: 105
  Population Fragmented Nuclei (%): 11.11%
  Population Healthy Nuclei (%): 58.59%
  Population Pyknosed Nuclei (%): 30.30%
  Population apoptotic cell (%): 60.00%
  Population cell that influence microtubule strucutre (%): 75.86%
  Population with increased mitochondrial mass (%): 65.52%
  Population with membrane disruption (%): 53.45%
[15]
  Cell count normalized to cells treated with DMSO control: 0.528
  Cell count per well: 235
  Population Fragmented Nuclei (%): 37.96%
  Population Healthy Nuclei (%): 28.70%
  Population Pyknosed Nuclei (%): 33.33%
  Population apoptotic cell (%): 68.06%
  Population cell that influence microtubule strucutre (%): 77.42%
  Population with increased mitochondrial mass (%): 54.84%
  Population with membrane disruption (%): 80.65%
[16]
  Cell count normalized to cells treated with DMSO control: 0.6342
  Cell count per well: 131
  Population Fragmented Nuclei (%): 20.83%
  Population Healthy Nuclei (%): 49.17%
  Population Pyknosed Nuclei (%): 30.00%
  Population apoptotic cell (%): 77.78%
  Population cell that influence microtubule strucutre (%): 77.97%
  Population with increased mitochondrial mass (%): 54.24%
  Population with membrane disruption (%): 67.80%
